Test results taken from patent US6329498A, “Polypeptide transition metal salts and method of enhancing anti-HIV activity of polypeptide” (Seikagaku Corporation, priority 1996, dated 2001).
Where a SMILES comes first, the peptide text is derived from it.

Tests used:
[1] = system: human immunodeficiency virus (HIV); experiment: Anti-HIV activity: protection of HIV-infected MT-4 cells from cell death, MTT method; conditions: for SI (CC50 /ED50): rough ratio of CC50 to EC50, MT-4 cells
Description: To a 96-well microtiter plate, HIV-infected MT-4 cells (2.5×10^4 cells/well, Multiplicity of infection (MOI): 0.001) was added immediately after the infection along with test materials in various concentrations. […] On the other hand, in order to know the cytotoxicity of the test substances on the MT-4 cells, virus-non-infected cells were cultured with the test materials in various concentrations as described above. […] And the rough ratio of CC50 to EC50 (CC50 /EC50) is expressed as an effective ratio (SI).

MT-4 cells = experiment: Cytotoxicity on virus-non-infected MT-4 cells, MTT method; type: cell-based; conditions: 5 days at 37° C.
[2] = HIV-infected MT-4 cells, MOI 0.001, 5 days at 37° C., MTT method

Compound: Cc1cn([C@H]2C[C@H](N=[N+]=[N-])[C@@H](CO)O2)c(=O)[nH]c1=O [AZT, reference compound]
- EC50 ([1]; read-out: EC50 (concentration to suppress 50% of cell death due to HIV infection), HIV-infected MT-4 cells, MOI 0.001, 5 days at 37° C., MTT method, unit μM printed with the compound): 0.0011 µM
- SI (CC50 /ED50) [1]: 1716
- CC50 (50% cytotoxic concentration) (MT-4 cells; unit μM printed with the compound): 1.93 µM

Compound: N=C(N)NCCC[C@H](NC(=O)[C@@H]1CSSC[C@H](NC(=O)[C@H](Cc2c[nH]c3ccccc23)NC(=O)[C@H](CCCNC(=N)N)NC(=O)[C@@H](N)CCCNC(=N)N)C(=O)N[C@@H](Cc2ccc(O)cc2)C(=O)N[C@@H](CCCNC(=N)N)C(=O)N[C@@H](CCCCN)C(=O)N[C@H]2CSSC[C@H](NC(=O)[C@H](Cc3ccc(O)cc3)NC(=O)CNC(=O)[C@H](CCCCN)NC(=O)[C@H](Cc3ccc(O)cc3)NC2=O)C(=O)N[C@@H](Cc2ccc(O)cc2)C(=O)N[C@@H](CCCNC(=N)N)C(=O)N[C@@H](CCCCN)C(=O)N1)C(N)=O [Polypeptide (1)] (HELM PEPTIDE1{R.R.W.C.Y.R.K.C.Y.K.G.Y.C.Y.R.K.C.R.[am]}$PEPTIDE1,PEPTIDE1,4:R3-17:R3|PEPTIDE1,PEPTIDE1,8:R3-13:R3$$$V2.0; bridges inferred)
- EC50 (concentration to suppress 50% of cell death due to HIV infection) [1, 2]: 0.0047 µg/mL
- CC50 (50% cytotoxic concentration) (MT-4 cells): 41.53 µg/mL

Compound: N=C(N)NCCC[C@H](NC(=O)[C@@H]1CSSC[C@H](NC(=O)[C@H](Cc2c[nH]c3ccccc23)NC(=O)[C@H](CCCNC(=N)N)NC(=O)[C@@H](N)CCCNC(=N)N)C(=O)N[C@@H](Cc2ccc(O)cc2)C(=O)N[C@@H](CCCNC(=N)N)C(=O)N[C@@H](CCCCN)C(=O)N[C@H](CCCCN)C(=O)N2CCC[C@H]2C(=O)N[C@@H](Cc2ccc(O)cc2)C(=O)N[C@@H](CCCNC(=N)N)C(=O)N[C@@H](CCCCN)C(=O)N1)C(N)=O [Polypeptide (2), Arg-Arg-Trp-Cys-Tyr-Arg-Lys----------DLys-Pro-----------Tyr-Arg-Lys-Cys-Arg-NH2] (HELM PEPTIDE1{R.R.W.C.Y.R.K.[dK].P.Y.R.K.C.R.[am]}$PEPTIDE1,PEPTIDE1,4:R3-13:R3$$$V2.0)
- EC50 (concentration to suppress 50% of cell death due to HIV infection) [1, 2]: 0.029 µg/mL
- SI (CC50 /ED50) [1]: 1565
- CC50 (50% cytotoxic concentration) (MT-4 cells): 44.60 µg/mL

Compound: N=C(N)NCCC[C@H](NC(=O)[C@H](CS)NC(=O)[C@H](CCCCN)NC(=O)[C@H](CCCNC(=N)N)NC(=O)[C@H](Cc1ccc(O)cc1)NC(=O)[C@H](CS)NC(=O)[C@H](Cc1ccc(O)cc1)NC(=O)CNC(=O)[C@H](CCCCN)NC(=O)[C@H](Cc1ccc(O)cc1)NC(=O)[C@H](CS)NC(=O)[C@H](CCCCN)NC(=O)[C@H](CCCNC(=N)N)NC(=O)[C@H](Cc1ccc(O)cc1)NC(=O)[C@H](CS)NC(=O)[C@H](Cc1c[nH]c2ccccc12)NC(=O)[C@H](CCCNC(=N)N)NC(=O)[C@@H](N)CCCNC(=N)N)C(N)=O [Reduced form of polypeptide (1)] (H-RRWCYRKCYKGYCYRKCR-NH2)
- EC50 (concentration to suppress 50% of cell death due to HIV infection) [1, 2]: 0.0052 µg/mL
- CC50 (50% cytotoxic concentration) (MT-4 cells): 41.27 µg/mL

Compound: N=C(N)NCCC[C@H](NC(=O)[C@H](CS)NC(=O)[C@H](CCCCN)NC(=O)[C@H](CCCNC(=N)N)NC(=O)[C@H](Cc1ccc(O)cc1)NC(=O)[C@@H]1CCCN1C(=O)[C@@H](CCCCN)NC(=O)[C@H](CCCCN)NC(=O)[C@H](CCCNC(=N)N)NC(=O)[C@H](Cc1ccc(O)cc1)NC(=O)[C@H](CS)NC(=O)[C@H](Cc1c[nH]c2ccccc12)NC(=O)[C@H](CCCNC(=N)N)NC(=O)[C@@H](N)CCCNC(=N)N)C(N)=O [Reduced form of] (HELM PEPTIDE1{R.R.W.C.Y.R.K.[dK].P.Y.R.K.C.R.[am]}$$$$V2.0)
- EC50 (concentration to suppress 50% of cell death due to HIV infection) [1, 2]: 0.040 µg/mL
- CC50 (50% cytotoxic concentration) (MT-4 cells): 41.17 µg/mL

Compound: Dextran sulfate [reference compound]
- EC50 (concentration to suppress 50% of cell death due to HIV infection) [1, 2]: 0.68 µg/mL
